In patent publication US20230067811A1, “MODULATING LYMPHATIC VESSELS IN NEUROLOGICAL DISEASE” (University of Virginia Patent Foundation, priority 2020, published 2023):

Tested on: 5×FAD mice
Assay: ABETA Mab1 i.p. in 5×FAD mice with intact or ablated meningeal lymphatics: Aβ plaques, LAMP1, IBA1, CD68, fibrinogen
Assay type: in vivo, mouse
Description: Upon recovery, mice received intraperitoneal (i.p.) injections of ABETA Mab1 (a murine antibody against Aβ protofibrils) or the control murine IgG (mIgG) antibodies, each at a dose of 40 mg/kg. Antibodies were injected weekly for a total of four weeks. Additional steps of meningeal lymphatic vessel ablation or control interventions were followed by four weekly injections with antibodies. Mice were tested in the open field and Morris water maze.
In another set of experiment 5×FAD mice of 3-3.5 months-old were injected (i.p.) with anti-Abeta antibody (ABETA Mab1) or mIgG (each at 40 mg/kg) following the exact same treatment regimen (FIG. 10A).
Treatments with anti-Aβ monoclonal antibodies. ABETA Mab1 and respective control IgG2a (mIgG) antibodies were manufactured by Absolute Antibody Ltd., Oxford Centre for Innovation, United Kingdom. Anti-Aβ monoclonal antibodies and respective mIgG controls were administered via intraperitoneal (i.p.) injection, at a dose of 40 mg/kg. Antibody dosages are also specified in the main text, illustrated in schemes and in each figure legend. Alternatively, ABETA Mab1 and mIgG antibodies were injected directly into the CSF, following the methodology described in the next section.
Meningeal lymphatic vessel ablation. Selective ablation of the meningeal lymphatic vessels was achieved by injection of Visudyne (Vis.) and consecutive transcranial photoconversion (photo.) steps following previously described methodology and regimens (Da Mesquita, S. et al. Functional aspects of meningeal lymphatics in ageing and Alzheimer's disease. Nature 560, 185-191, (2018); Louveau, A. et al. CNS lymphatic drainage and neuroinflammation are regulated by meningeal lymphatic vasculature. Nat Neurosci 21, 1380-1391, (2018)). Visudyne was reconstituted following manufacturer instructions, aliquoted and kept at −20° C. until further used. […] Each spot was irradiated with a light dose of 50 J/cm^2 at an intensity of 600 mW/cm^2 for a total of 83 s. […]
Immunohistochemistry, imaging and quantifications. […]

[1] = 5×FAD mice with reduced meningeal lymphatic drainage

With verteporfin [Visudyne] the “brain coverage by LAMP1+ dystrophic neurites” value (5×FAD mice with dysfunctional versus intact meningeal lymphatics) was “significantly increased”, the “fibrinogen levels in the brain” value [1] was “increased fibrinogen levels” and the “myeloid cell activation (IBA1+ coverage, peri-Aβ plaque IBA1+ cells, CD68 on IBA1+ cells)” value [1] was “aberrant activation of myeloid cells”.
